According to patent publication US9809602B2, “Compounds for treating viral infections” (INSTITUT PASTEUR KOREA, priority 2014, dated 2017):

Test system: genotype 1/2 chimeric cell culture derived HCV (HCVcc)
Assay: Genotype 1/2 chimeric HCVcc assay (nano-luciferase, HCV replication)
Assay type: cell-based
Conditions: Hepatitis C virus
Experimental: Naïve Huh-7.5 target cells were plated at 2400 cells/well in 25 μL of culture media in 384-well plates (Greiner bio-one, μ clear black). After overnight incubation, compounds serially diluted in 10 μL of cell culture media were added. After 2 h compound treatment, cells were inoculated with 40 μL of genotype 1/2 chimeric cell culture derived HCV (HCVcc) which express structural proteins of an HCV genotype 1a isolate (TN accession number EF621489) and non-structural proteins of HCV genotype 2a (JFH-1) with nano-luciferase reporter. At 72 h post infection, nano-luciferase activity (Nano-Glo™, Promega) and cellular ATP (Cell titer-Glo™, Promega) were measured as a marker for HCV replication and cytotoxicity, respectively. EC50 and CC50 were calculated by non-linear regression analyzing using GraphPad Prism (GraphPad Software).

SMILES	EC50 [nM]
O=C(NCCCN1CCC(N2CCCCC2)CC1)c1ccc(Oc2ccc(Br)cc2)cc1 [Compound 1034]	1000 to 10000
O=C(NCCCN1CCC(N2CCCCC2)C1)c1ccc(Oc2ccccc2)cc1 (stereo not shown) [Compound 1084]	> 10000
O=C(NCCCN1CCC(N2CCCCC2)CC1)c1ccc(-c2ccccc2C(F)(F)F)cc1 [Compound 1028]	100 to 1000
COc1ccccc1Oc1ccc(C(=O)NCCCN2CCC(N3CCCCC3)CC2)cc1 [Compound 1063]	> 10000
O=C(NCCCCCN1CCC(N2CCCCC2)CC1)c1ccc(Oc2ccccc2)cc1 [Compound 1087]	100 to 1000
O=C(NCCCN1CCC(N2CCCCC2)CC1)c1ccc(-c2ccc(C(F)(F)F)s2)cc1 [Compound 1137]	100 to 1000
O=C(NCCCN1CCC(N2CCCCC2)CC1)c1ccc(-c2cccc(C(F)(F)F)c2)cc1 [Compound 1027]	100 to 1000
CC(C)(C)OC(=O)c1ccc(-c2ccc(C(=O)NCCCN3CCC(N4CCCCC4)CC3)cc2)cc1 [Compound 1139]	100 to 1000
O=C(NCCCN1CCC(N2CCCCC2)CC1)c1ccc(-c2ccccc2)cc1 [Compound 1005]	100 to 1000
O=C(CCCN1CCC(N2CCCCC2)CC1)Nc1ccc(-c2ccc(C(F)(F)F)cc2)c(F)c1 [Compound 1113]	100 to 1000
O=C(NCCCN1CCC(N2CCCCC2)CC1)c1cccc(Oc2cccc(C(F)(F)F)c2)c1 [Compound 1107]	100 to 1000
CN(C)C1CCN(CCCNC(=O)c2ccc(Oc3ccccc3)cc2)CC1 [Compound 1068]	100 to 1000
O=C(Nc1ccc(N2CCC(N3CCCCC3)CC2)cc1)c1ccc(Oc2ccccc2)cc1 [Compound 1048]	1000 to 10000
COc1ccccc1-c1ccc(C(=O)NCCCN2CCC(N3CCCCC3)CC2)cc1 [Compound 1017]	1000 to 10000
O=C(NCCCN1CCC(N2CCCCC2)CC1)c1cccc(Oc2ccccc2)c1 [Compound 1031]	1000 to 10000
N#Cc1cc(NC(=O)CCCN2CCC(N3CCCCC3)CC2)ccc1-c1ccc(C(F)(F)F)cc1 [Compound 1159]	100 to 1000
Cc1ccc(-c2ccc(C(=O)NCCCN3CCC(N4CCCCC4)CC3)cc2)cc1 [Compound 1016]	100 to 1000

SMILES	EC50 [nM]
COc1ccc(-c2ccc(C(=O)NCCCN3CCC(N4CCCCC4)CC3)cc2)c(F)c1 [Compound 1131]	100 to 1000
O=C(NCCCOc1ccc(N2CCCCC2)cc1)c1ccc(Oc2ccccc2)cc1 [Compound 1051]	> 10000
O=C(NCCCN1CCC(N2CCCCC2)CC1)c1ccc(-c2ccc(CO)cc2)cc1 [Compound 1148]	> 10000
O=C(NCCCN1CCC(N2CCCCC2)CC1)c1ccc(-c2ccccc2OC(F)(F)F)cc1 [Compound 1149]	100 to 1000
O=C(NCCNc1ccc(N2CCCCC2)cc1)c1ccc(Oc2ccccc2)cc1 [Compound 1057]	1000 to 10000
O=C(NCCCN1CCN(C(=O)c2ccccc2)CC1)c1ccc(Oc2ccccc2)cc1 [Compound 1039]	> 10000
O=S(=O)(NCCCN1CCC(N2CCCCC2)CC1)c1ccc(Oc2ccccc2)cc1 [Compound 1060]	100 to 1000
CN(C)c1ccc(-c2ccc(C(=O)NCCCN3CCC(N4CCCCC4)CC3)c(Cl)c2)cc1 [Compound 1154]	100 to 1000
CC(C)(C)c1ccc(-c2ccc(C(=O)NCCCN3CCC(N4CCCCC4)CC3)cc2)cc1 [Compound 1124]	100 to 1000
O=C(NCCCN1CCC(N2CCCCC2)CC1)c1ccc(-c2ccc(F)cc2C(F)(F)F)cc1 [Compound 1133]	100 to 1000
O=C(NCCCN1CCC(N2CCCCC2)CC1)c1cc2c(s1)CCCC2 [Compound 1002]	> 10000
O=C(NC/C=C/CN1CCC(N2CCCCC2)CC1)c1ccc(Oc2ccccc2)cc1 [Compound 1076]	100 to 1000
CN(C)c1ccc(-c2ccc(C(=O)NCCCN3CCC(N4CCCCC4)CC3)cc2)cc1 [Compound 1125]	100 to 1000
O=C(c1ccc(C2CCCCC2)cc1)N1CCC(N2CCCCC2)CC1 [Compound 1007]	1000 to 10000
CN(C)C(=O)c1ccc(-c2ccc(C(=O)NCCCN3CCC(N4CCCCC4)CC3)cc2)cc1 [Compound 1120]	> 10000
O=C(NCCCN1CCC(N2CCCCC2)CC1)c1ccc(-c2ccc(C(F)(F)F)cc2)o1 [Compound 1083]	100 to 1000

Same assay, conditions: Hepatitis C virus, Huh7.5, 72 h

SMILES	EC50 [nM]
CC(C)(C)OC(=O)c1c(NC(=O)NCc2c(-c3ccc(C(F)(F)F)nc3)sc3c2CCNC3)sc2c1CCCC2 [Compound 131]	100 to 1000
Cc1sc(NC(=O)NCc2c(-n3c(C)ccc3C)sc3c2CCNC3)c(C(=O)OC(C)(C)C)c1C [Compound 352]	1000 to 10000
CC1CCCc2sc(NC(=O)NCc3c(-n4cccc4)sc4c3CCN(C)C4)c(C(=O)OC(C)(C)C)c21 (stereo not shown) [Compound 291]	< 100
CCN1CCc2c(sc(-n3cccc3)c2C(C)(C)NC(=O)Nc2sc3c(c2C(=O)OC(C)(C)C)CCCC3)C1 [Compound 202]	1000 to 10000
CCN1CCc2c(sc(-n3cccc3)c2CNC(=O)Nc2ccccc2)C1 [Compound 8]	> 10000
Cc1nnc(-c2c(NC(=O)NCc3c(-n4cccc4)sc4c3CCN(C)C4)sc(C)c2C)o1 [Compound 74]	< 100
CC(C)(C)OC(=O)c1c(NC(=O)NCc2c(C(F)(F)F)sc3c2CCNC3)sc2c1CCC1(C2)OCCO1 [Compound 311]	< 100
CCc1sc2c(c1CNC(=O)Nc1sc3c(c1C(=O)OC1CCCC1)CCCC3)CCNC2 [Compound 313]	< 100
Cc1nnc(-c2c(NC(=O)NCc3c(-n4cccc4)sc4c3CCNC4)sc3c2CCCC3)o1 [Compound 60]	100 to 1000
CC(C)(C)OC(=O)c1c(NC(=O)NCc2c(C(F)(F)F)sc3c2CCNC3)sc2c1CCOC2 [Compound 238]	< 100
CCN1CCc2c(sc(-n3cccc3)c2CNC(=O)Nc2sc3c(c2C(=O)OC)CCCC3)C1 [Compound 127]	< 100
CCOC(=O)c1c(NC(=O)NCc2c(Br)sc3c2CCNC3)sc2c1CCCC2 [Compound 81]	< 100
CCc1sc2c(c1CNC(=O)Nc1sc3c(c1C(=O)OC(C)(C)C)CCCCC3)CCNC2 [Compound 312]	< 100
CC(C)(C)OC(=O)c1c(NC(=O)NCc2c(-c3ccoc3)sc3c2CCNC3)sc2c1CCCC2 [Compound 183]	< 100
CN(C)CCN1CCc2c(sc(C(F)(F)F)c2CNC(=O)Nc2sc3c(c2C(=O)OC(C)(C)C)CCCC3)C1 [Compound 355]	< 100
CCOC(=O)c1c(NC(=O)NCc2c(-n3cccc3)sc3c2CCCC3)sc2c1CCCC2 [Compound 4]	< 100
CC(C)OC(=O)c1c(NC(=O)NCc2c(Br)sc3c2CCNC3)sc2c1CCCC2 [Compound 140]	< 100
CC1CCc2sc(NC(=O)NCc3c(C(F)(F)F)sc4c3CCNC4)c(C(=O)OC(C)(C)C)c2C1 (stereo not shown) [Compound 233]	< 100
CCOC(=O)c1c(NC(=O)NCc2c(C(F)(F)F)sc3c2CCN(CC)C3)sc2c1CCCC2 [Compound 118]	< 100
COC(=O)c1c(NC(=O)NCc2c(-n3cccc3)sc3c2CCN(C)C3)sc2c1CCCC2 [Compound 155]	100 to 1000

SMILES	EC50 [nM]
CC(C)(C)OC(=O)c1c(NC(=O)NCc2c(Br)sc3c2CC[N+](C)(C)C3)sc2c1CCCCC2 [Compound 255]	< 100
CCOC(=O)c1c(NC(=O)NCc2c(-n3cccc3)sc3c2CCN(C)C3)sc2c1CC(C)CC2 (stereo not shown) [Compound 191]	< 100
O=C(NCc1c(C(F)(F)F)sc2c1CCNC2)Nc1sc2c(c1C(=O)OC1CCCC1)CCCC2 [Compound 235]	< 100
CC1CCc2c(sc(NC(=O)NCc3c(C(F)(F)F)sc4c3CCNC4)c2C(=O)OC(C)(C)C)C1 (stereo not shown) [Compound 212]	< 100
CCc1sc(NC(=O)NCc2c(C(F)(F)F)sc3c2CCN(CCN(C)C)C3)c(C(=O)OC(C)(C)C)c1C [Compound 356]	< 100
CC(C)(C)OC(=O)c1c(NC(=O)NCc2c(Br)sc3c2CCNC3)sc2c1CCCC2 [Compound 116]	< 100
COc1cccc(-c2sc3c(c2CNC(=O)Nc2sc4c(c2C(=O)OC(C)(C)C)CCCC4)CCNC3)c1 [Compound 228]	100 to 1000
CCOC(=O)c1c(NC(=O)NCc2c(N3C(=O)CCC3=O)sc3c2CCN(CC)C3)sc2c1CCCC2 [Compound 31]	100 to 1000
CC(C)(C)OC(=O)c1c(NC(=O)NCc2c(-n3cccc3)sc3c2CCN(CCC(F)(F)F)C3)sc2c1CCCC2 [Compound 241]	< 100
O=C(NCc1c(Br)sc2c1CCNC2)Nc1sc2c(c1C(=O)OC1CCCC1)CCCC2 [Compound 262]	< 100
CCOC(=O)c1c(NC(=O)NCc2cccc(CN(C)C)c2)sc2c1CCCC2 [Compound 102]	100 to 1000
CCOC(=O)c1c(NC(=O)NCc2c(-n3cccc3)sc3c2CCN(Cc2ccccc2)C3)sc(C)c1C [Compound 28]	< 100
CCOC(=O)c1c(NC(=O)NCc2c(-n3cnc(C)n3)sc3c2CCNC3)sc2c1CCCC2 [Compound 87]	100 to 1000
Cc1sc(NC(=O)NCc2c(-c3cccc(Cl)c3)sc3c2CCNC3)c(C(=O)OC2CCOC2)c1C (stereo not shown) [Compound 357]	100 to 1000
CC(C)(C)OC(=O)c1c(NC(=O)NCc2c(-c3ccc(C(=O)O)cc3F)sc3c2CCNC3)sc2c1CCCC2 [Compound 321]	1000 to 10000
CCN1CCc2c(sc(-n3cccc3)c2CNC(=O)Nc2sc3c(c2C(N)=O)CCCC3)C1 [Compound 37]	100 to 1000
CCOC(=O)c1c(NC(=O)NCc2c(-n3cccc3)sc3c2CCN(S(C)(=O)=O)C3)sc2c1CCCC2 [Compound 21]	< 100
CC(C)(C)OC(=O)c1c(NC(=O)NCc2c(N3CCCC3)sc3c2CCNC3)sc2c1CCCC2 [Compound 143]	< 100
CC(C)(C)OC(=O)c1ccsc1NC(=O)NCc1c(C(F)(F)F)sc2c1CCNC2 [Compound 343]	100 to 1000
CCOC(=O)c1c(NC(=O)NCc2c(C(F)(F)F)sc3c2CCN(C(C)C)C3)sc2c1CCCC2 [Compound 198]	< 100
